Results reported in patent EP4790066A1, “GLP-1R/GIPR/GCGR TRIPLE AGONIST ANALOGUE AND USE THEREOF” (Shenzhen Bay Laboratory, priority 2023, dated 2025).

Key:
Type in all cases: cell-based
GCGR [1] = target: T1, GCGR (Homo sapiens, UniProt P47871); test: cAMP method (HTRF cAMP detection kit), HEK293/pGM-CREB-L-Luc/GCG pool; conditions: read-out: EC50 (pM) for each receptor GCGR
T1 construct: expressed in transfected cells
Description: (§1) 2. Insulinotropic analogues can bind to target receptors on the cell membrane, activate the receptors, and induce release. The activity of the test substance can be determined using the HTRF method with a cAMP detection kit. Therefore, the cAMP method can be used to detect the target peptide derivatives (or polypeptide derivatives, i.e., TG1-TG86) prepared in Example 1 and Example 2. […] The test cell line was selected, treated with cAMP-specific trypsin for digestion. 3 mL of serum-free DMEM culture medium was added, and the cells were pipetted, resuspended, and counted. 5 µL of IBMX (prepared with serum-free DMEM medium, 0.5 mM) and test cells (5 µL/7500 cells/well) were added in a 384-well plate sequentially. The plate was incubated at 37°C under 5% CO2 for 30 min, followed by the addition of cAMP-d2 (5 µL, 1x) and Anti-cAMP-Cryptate (5 µL, 1x). The mixture was kept at room temperature for 1 h, after which the HTRF value was measured using a chemiluminescent microplate reader, and the determination result was recorded. […] Table 4: EC50 values for target peptide derivatives

GIPR = target: T2, GIPR (Homo sapiens, UniProt P48546); test: CreLuc method (CRE-luciferase reporter), HEK293/pGM-CREB-L-Luc/GIPR pool; conditions: 6 h incubation, read-out: EC50 (pM) for each receptor GIPR
T2 construct: expressed in transfected cells
T2 sequence (P48546 22-466): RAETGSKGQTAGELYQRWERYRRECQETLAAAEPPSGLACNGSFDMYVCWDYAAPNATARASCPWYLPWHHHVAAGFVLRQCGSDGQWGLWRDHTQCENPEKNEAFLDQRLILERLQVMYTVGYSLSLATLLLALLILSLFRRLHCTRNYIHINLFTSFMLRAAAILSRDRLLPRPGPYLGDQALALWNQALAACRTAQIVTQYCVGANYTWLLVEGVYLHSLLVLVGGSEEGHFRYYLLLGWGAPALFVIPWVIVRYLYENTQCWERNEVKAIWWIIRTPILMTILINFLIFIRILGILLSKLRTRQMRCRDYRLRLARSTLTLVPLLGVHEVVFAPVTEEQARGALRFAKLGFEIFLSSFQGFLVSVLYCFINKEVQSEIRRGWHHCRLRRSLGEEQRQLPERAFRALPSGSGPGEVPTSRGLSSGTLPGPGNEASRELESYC
Method in brief: (§2)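 Stable HEK293 pools co-expressing each receptor with a CRE-luciferase reporter were plated at 20,000 cells/well in freestyle medium and treated with compound dilution series for 6 h at 37 °C. Luminescence was read with ONE-GLO to derive EC50.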

GCGR [2] = target: T1, GCGR; test: CreLuc method (CRE-luciferase reporter), 293HEK/pGM-CREB-L-Luc/GCGR pool; conditions: 6 h incubation, read-out: EC50 (pM) for each receptor GCGR
Method in brief: as §2

GLP-1R [3] = target: T3, GLP-1R (Homo sapiens, UniProt P43220); test: CreLuc method (CRE-luciferase reporter), HEK293/pGM-CREB-L-Luc/GLP-1R pool; conditions: 6 h incubation, read-out: EC50 (pM) for each receptor GLP-1R
T3 construct: expressed in transfected cells
T3 sequence (P43220 24-463, species assumed): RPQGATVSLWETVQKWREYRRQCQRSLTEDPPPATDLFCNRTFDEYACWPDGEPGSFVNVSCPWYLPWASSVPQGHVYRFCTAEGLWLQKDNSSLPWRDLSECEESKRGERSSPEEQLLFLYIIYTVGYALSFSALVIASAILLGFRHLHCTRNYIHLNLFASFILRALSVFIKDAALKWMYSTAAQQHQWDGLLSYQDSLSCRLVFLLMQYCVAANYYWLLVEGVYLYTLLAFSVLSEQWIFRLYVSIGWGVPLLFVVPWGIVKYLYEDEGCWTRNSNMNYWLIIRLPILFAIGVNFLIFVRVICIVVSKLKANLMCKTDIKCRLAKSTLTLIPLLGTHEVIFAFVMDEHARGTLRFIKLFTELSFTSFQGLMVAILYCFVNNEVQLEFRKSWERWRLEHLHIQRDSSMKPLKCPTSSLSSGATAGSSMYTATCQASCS
Method in brief: as §2

GLP-1R [4] = target: T3, GLP-1R; test: cAMP method (HTRF cAMP detection kit), HEK293/pGM-CREB-L-Luc/GLP-1 pool; conditions: read-out: EC50 (pM) for each receptor GLP-1R
Description: as §1

T1 sequence (P47871 26-477, species assumed): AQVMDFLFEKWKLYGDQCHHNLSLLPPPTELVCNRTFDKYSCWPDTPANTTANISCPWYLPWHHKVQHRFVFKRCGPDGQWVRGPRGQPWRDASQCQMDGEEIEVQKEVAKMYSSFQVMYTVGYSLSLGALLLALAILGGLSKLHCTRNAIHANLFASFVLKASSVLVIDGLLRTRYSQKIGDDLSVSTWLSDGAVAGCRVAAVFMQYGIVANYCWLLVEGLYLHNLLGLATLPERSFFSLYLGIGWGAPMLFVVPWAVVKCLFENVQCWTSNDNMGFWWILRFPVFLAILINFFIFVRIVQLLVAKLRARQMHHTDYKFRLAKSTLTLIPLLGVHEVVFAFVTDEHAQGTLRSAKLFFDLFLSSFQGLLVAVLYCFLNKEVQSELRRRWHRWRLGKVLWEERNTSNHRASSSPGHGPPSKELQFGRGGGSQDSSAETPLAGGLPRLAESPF

Row | Compound | EC50 (GCGR [1]) [pM] | EC50 (GIPR) [pM] | EC50 (GCGR [2]) [pM] | EC50 (GLP-1R [3]) [pM] | EC50 (GLP-1R [4]) [pM]
1 | CC[C@H](C)[C@@H]1NC(=O)[C@H](Cc2ccccc2)NC(=O)[C@@H](NC(=O)C(C)(C)NC(=O)[C@H](CCC(N)=O)NC(=O)[C@H](C)NC(=O)[C@H](CCCCNC(C)=O)NC(=O)[C@H](CCCCN)NC(=O)[C@H](CC(=O)O)NC(=O)[C@H](CCC(C)C)NC(=O)[C@](C)(CC(C)C)NC(=O)[C@@H](NC(=O)[C@H](CO)NC(=O)[C@H](Cc2ccc(O)cc2)NC(=O)[C@H](CC(=O)O)NC(=O)[C@H](CO)NC(=O)[C@@H](NC(=O)[C@H](Cc2ccccc2)NC(=O)[C@@H](NC(=O)CNC(=O)[C@H](CCC(N)=O)NC(=O)C(C)(C)NC(=O)[C@@H](N)Cc2ccc(O)cc2)[C@@H](C)O)[C@@H](C)O)[C@@H](C)CC)CSCC(=O)NCCN(C(=O)CCC(=O)NCCOCCOCC(=O)NCCOCCOCC(=O)NCCCC[C@H](NC(=O)CCCCCCCCCCCCCCCCCCC(=O)O)C(=O)O)CCNC(=O)CSC[C@@H](C(=O)NCC(=O)NCC(=O)N2CCC[C@H]2C(=O)N[C@@H](CO)C(=O)N[C@@H](CO)C(=O)NCC(=O)N[C@@H](C)C(=O)N2CCC[C@H]2C(=O)N2CCC[C@H]2C(=O)N2CCC[C@H]2C(=O)N[C@@H](CO)C(N)=O)NC(=O)[C@H](CC(C)C)NC(=O)[C@H](CC(C)C)NC(=O)[C@H](Cc2ccc(O)cc2)NC(=O)[C@H](CCC(=O)O)NC1=O [TG25] | 65.1 | 24.4 | 311 | 54 | 2.2
2 | CC[C@H](C)[C@@H]1NC(=O)[C@H](Cc2ccccc2)NC(=O)[C@@H](NC(=O)C(C)(C)NC(=O)[C@H](CCC(N)=O)NC(=O)[C@H](C)NC(=O)[C@H](CCCCNC(C)=O)NC(=O)[C@H](CCCCN)NC(=O)[C@H](CC(=O)O)NC(=O)[C@H](CC(C)C)NC(=O)[C@](C)(CC(C)C)NC(=O)[C@@H](NC(=O)[C@H](CO)NC(=O)[C@H](Cc2ccc(O)cc2)NC(=O)[C@H](CC(=O)O)NC(=O)[C@H](CO)NC(=O)[C@@H](NC(=O)[C@H](Cc2ccccc2)NC(=O)[C@@H](NC(=O)CNC(=O)[C@H](CCC(N)=O)NC(=O)C(C)(C)NC(=O)[C@@H](N)Cc2ccc(O)cc2)[C@@H](C)O)[C@@H](C)O)[C@@H](C)CC)CSCC(=O)NCCN(C(=O)CCC(=O)NCCOCCOCC(=O)NCCOCCOCC(=O)NCCCC[C@H](NC(=O)CCCCCCCCCCCCCCCCCCC(=O)O)C(=O)O)CCNC(=O)CSC[C@@H](C(=O)NCC(=O)NCC(=O)N2CCC[C@H]2C(=O)N[C@@H](CO)C(=O)N[C@@H](CO)C(=O)NCC(=O)N[C@@H](C)C(=O)N2CCC[C@H]2C(=O)N2CCC[C@H]2C(=O)N2CCC[C@H]2C(=O)N[C@@H](CO)C(N)=O)NC(=O)[C@H](CC(C)C)NC(=O)[C@H](CC(C)C)NC(=O)[C@H](Cc2c[nH]c3ccccc23)NC(=O)[C@H](CCC(=O)O)NC1=O [TG28] | 83.7 | 30 | 482 | 60.2 | 2.2
